Key:
CTLL-2 cells = type: cell-based
[1] = tested on: BMDCs infected with Influenza A virus; type: cell-based

| Sequence | proliferation of CTLL-2 cells (CTLL-2 cells) | interferon response to influenza infection in vitro [1] | effect of mixing the monomer with the dimeric peptide on the suppressive activity of the dimer (CTLL-2 cells) |
| --- | --- | --- | --- |
| DRGWGNGCGLFGKG [FLV IS mono/1] | has no effect |  |  |
| GLFGAIAGFIENGWEGGGGEKEKEK [INF F#2 C17G] |  | enhances the interferon response |  |
| GLFGAIAGFIENGWEGCGGEKEKEK [IN F#2 monomer] | has no effect |  | completely removes the suppressive activity of the dimers |
